Experimental data reported in PMC8072719, “Synthesis and Antiproliferative Activity of Triazoles Based on 2-Azabicycloalkanes” (Materials, 2021).
Like-named read-outs stand apart in the source and are kept apart here.

Tests used:
Hs294T = assay: Growth inhibition assay (SRB assay), melanoma cell line Hs294T; type: cell-based, human; conditions: Homo sapiens, Hs 294T, 72 h, mean ± SD
Protocol: (§1) Three human cancer cell lines were used to evaluate the antiproliferative activity of the obtained compounds: melanoma cell line Hs294T, pancreatic tumor cell line MIA PaCa-2, and lung tumor cell line NCI-H1581. The normal mouse fibroblasts cell line (BALB/3T3 clone A31) was selected as reference. All these lines were purchased from the ATCC (American Type Culture Collection, Rockville, MD, USA). NCI-H1581 cells were grown in RPMI 1640 with GlutaMax medium (Gibco, Thermo Fisher Scientific, Leicestershire, UK) with 5% fetal bovine serum (FBS; HyClone, GE Healthcare, Logan, UT, USA). Hs294T and BALB/3T3 cells were grown in Dulbecco’s Modified Eagle Medium (DMEM; Gibco, Thermo Fisher Scientific, Leicestershire, UK) supplemented with 2 mM L-glutamine and 10% FBS (HyClone, GE Healthcare, Logan, UT, USA). MIA PaCa-2 cells were grown in DMEM (Gibco, Thermo Fisher Scientific, Leicestershire, UK) supplemented with 2 mM L-glutamine, 2.5% Horse Serum (Gibco, Thermo Fisher Scientific, Leicestershire, UK), and 10% FBS (HyClone, GE Healthcare, Logan, UT, USA). All culture media were supplemented with antibiotics: 100 U/mL penicillin (Polfa Tarchomin SA, Warsaw, Poland) and 100 µg/mL streptomycin (Sigma-Aldrich Chemie GmbH, Steinheim, Germany); cells were grown at 37 °C in a humid atmosphere with 5% CO2.
(§2) Twenty-four hours prior to the addition of the tested compounds, 2000 cells per well of Balb/3T3, MIA PaCa-2, and Hs294T cell lines and 2500 cells of NCI-H1581 cell line were seeded in 384-well plates (Greiner Bio-One, Kremsmünster, Austria) in an appropriate medium. The studied compounds were added to the cells at 8 different concentrations in a series of dilutions from 100 to 0.00001 µg/mL for 72 h. Cisplatin was applied as a reference compound (Teva Pharmaceuticals, Warsaw, Poland). DMSO (Sigma-Aldrich Chemie GmbH, Steinheim, Germany) was used as solvent control. The DMSO concentrations corresponded to the solvent concentrations in the tested compound solutions. Then, 30 µL per well of ice-cold 50% TCA (trichloroacetic acid, Avantor, Gliwice, Poland) was added to the cells. After one hour of incubation at room temperature (RT) cells were washed five times with water and stained with 0.4% SRB (sulforhodamine B, Sigma-Aldrich Chemie GmbH, Steinheim, Germany). Twenty-five microliters per well of 0.4% solution of SRB in 1% acetic acid (Avantor, Gliwice, Poland) was applied. After 0.5 h of incubation at RT, the unbound dye was washed out with 1% acetic acid. The bound dye in each well was dissolved in 70 µl of 10 mM TRIS (Tris base, Sigma-Aldrich, Chemie GmbH, Steinheim, Germany). A microplate reader (BioTek Synergy H4, Swindon, UK) with Gen5 software was used to read the absorbance at 540 nm. The results are presented as mean IC50 values (concentration of the compound that inhibits cell proliferation by 50%) ± standard deviation. Half-maximal inhibitory concentration (IC50) values were calculated using the Prolab-3 system based on Cheburator 0.4 [22]. Each experiment was performed in triplicate, and three independent repetitions were made for each experiment. Raw data and IC50 values were placed in the supplementary materials.

BALB/3T3 clone A31 = assay: Growth inhibition assay (SRB assay), normal fibroblasts BALB/3T3 clone A31; type: cell-based, mouse; conditions: mean ± SD
Protocol: as §1, §2

NCI-H1581 = assay: Growth inhibition assay (SRB assay), lung tumor cell line NCI-H1581; type: cell-based, human; conditions: for IC50: 72 h, SRB, mean ± SD; for SI (Selectivity Index): SI = IC50 for normal cell line BALB/3T3 / IC50 for NCI-H1581
Protocol: as §1, §2

[1] = Solvability in DMSO (table footnote); type: physicochemical; design: key to solvability in dimethyl sulfoxide (DMSO): **: poor or no solvability in dimethyl sulfoxide (DMSO); key to solvability in DMSO: [b]: poor or no solvability in DMSO; conditions: for solvability in DMSO: supplement
MIA PaCa-2 = assay: Growth inhibition assay (SRB assay), pancreatic tumor cell line MIA PaCa-2; type: cell-based, human; conditions: Homo sapiens, mean ± SD
Protocol: as §1, §2

[2] = supplement, read-out: IC50 Hs294T (raw data)
[3] = Mus musculus, BALB/3T3 clone A31, 72 h, normal cell line, read-out: IC50 BALB3T3
[4] = Mus musculus, BALB/3T3 clone A31, 72 h, supplement, read-out: IC50 BALB3T3 (raw data)
[5] = Homo sapiens, NCI-H1581, 72 h, read-out: IC50 NCI-H1581
[6] = Homo sapiens, NCI-H1581, 72 h, supplement, read-out: IC50 NCI-H1581 (raw data)
[7] = MIA PaCa-2, 72 h, read-out: IC50 MIA PaCa-2
[8] = MIA PaCa-2, supplement, 72 h, read-out: IC50 MIA PaCa-2 (raw data)

Work on `C[C@@H](c1ccccc1)N1C[C@H](n2cc(-c3ccc(-c4cn([C@H]5CN([C@@H](C)c6ccccc6)[C@H]6CC[C@@H]5C6)nn4)cc3)nn2)[C@@H]2CC[C@H]1C2` [Compound 15, 1,4-Bis-(1-((1S,4R,5R)-2-((S)-1-phenylethyl)-2-azabicyclo[3.2.1]octan-4-yl)-1H-1,2,3-triazol-4-yl) benzene] yielded an IC50 (Hs294T; read-out: IC50 Hs294T) of 58.8 ± 4.07 µM, an IC50 (Hs294T; [2]) of 37.6 ± 2.6 µg/mL and an IC50 (BALB/3T3 clone A31; [3]) of 59.5 ± 11.7 µM. It also gave an IC50 (BALB/3T3 clone A31; [4]) of 38 ± 7.48 µg/mL, an IC50 (NCI-H1581; [5]) of 6.87 ± 1.46 µM and an IC50 (NCI-H1581; [6]) of 4.39 ± 0.93 µg/mL. For the same compound, the “SI (Selectivity Index)” value (NCI-H1581) was 9, the “solvability in dimethyl sulfoxide (DMSO)” value [1] was 15 ** and the “solvability in DMSO” value [1] was “[b]”. The IC50 (MIA PaCa-2; [7]) was 111 ± 9.55 µM and the IC50 (MIA PaCa-2; [8]) was 71.2 ± 6.1 µg/mL.
For `C[C@@H](c1ccccc1)N1C[C@@H](n2cc(-c3ccc(-c4cn([C@@H]5CN([C@@H](C)c6ccccc6)[C@H]6CC[C@@H]5C6)nn4)cc3)nn2)[C@@H]2CC[C@H]1C2` [Compound 14, 1,4-Bis-(1-((1S,4S,5R)-2-((S)-1-phenylethyl)-2-azabicyclo[3.2.1]octan-4-yl)-1H-1,2,3-triazol-4-yl) benzene], the IC50 (Hs294T; read-out: IC50 Hs294T) was 77.3 ± 9.5 µM, the IC50 (Hs294T; [2]) was 49.4 ± 6.07 µg/mL and the IC50 (BALB/3T3 clone A31; [3]) was over 100 µM. For the same compound, the IC50 (BALB/3T3 clone A31; Mus musculus, BALB/3T3 clone A31, 72 h, supplement, read-out: IC50 BALB3T3 (non-rounded data)) was over 100 µM, the IC50 (BALB/3T3 clone A31; [4]) was over 100 µM and the IC50 (NCI-H1581; [5]) was 20.9 ± 15.2 µM. For the same compound, the IC50 (NCI-H1581; [6]) was 13.4 ± 9.71 µg/mL, the “solvability in dimethyl sulfoxide (DMSO)” value [1] was 14 ** and the “solvability in DMSO” value [1] was “[b]”. It also gave an IC50 (MIA PaCa-2; [7]) of over 100 µM, an IC50 (MIA PaCa-2; MIA PaCa-2, supplement, 72 h, read-out: IC50 MIA PaCa-2 (non-rounded data)) of over 100 µM and an IC50 (MIA PaCa-2; [8]) of over 100 µM.
Work on `CC(c1ccccc1)N1C2CCC(C2)C1c1cn(CC2CCCN2C(=O)OC(C)(C)C)nn1` (stereo not shown) [Compound 21] yielded an IC50 (Hs294T; read-out: IC50 Hs294T) of 92.6 ± 22 µM, an IC50 (Hs294T; [2]) of 41.8 ± 9.92 µg/mL and an IC50 (BALB/3T3 clone A31; [3]) of over 100 µM. It also gave an IC50 (BALB/3T3 clone A31; [4]) of 48.8 ± 10.1 µg/mL, an IC50 (NCI-H1581; read-out: IC50 NCI-H1581) of 77.6 ± 8.68 µM and an IC50 (NCI-H1581; [5]) of 77.6 µM. The IC50 (NCI-H1581; [6]) was 35 ± 3.92 µg/mL, the “solvability in dimethyl sulfoxide (DMSO)” value [1] was 21 ** and the “solvability in DMSO” value [1] was “[b]”. It also gave an IC50 (MIA PaCa-2; [7]) of 90.28 ± 0.69 µM and an IC50 (MIA PaCa-2; [8]) of 40.77 ± 0.31 µg/mL.
`C[C@@H](c1ccccc1)N1C[C@H](n2cc(CCCc3cn([C@H]4CN([C@@H](C)c5ccccc5)[C@H]5CC[C@@H]4C5)nn3)nn2)[C@@H]2CC[C@H]1C2` [Compound 11, 1,3-Bis-(1-((1S,4R,5R)-2-((S)-1-phenylethyl)-2-azabicyclo[3.2.1]octan-4-yl)-1H-1,2,3-triazol-4-yl) propane] gave an IC50 (Hs294T; read-out: IC50 Hs294T) of 9.71 ± 3.08 µM, an IC50 (Hs294T; [2]) of 5.87 ± 1.86 µg/mL and an IC50 (BALB/3T3 clone A31; 72 h, normal cell line, read-out: IC50 BALB3T3) of 26.7 ± 4.76 µM. For the same compound, the IC50 (BALB/3T3 clone A31; [3]) was 26.7 µM, the IC50 (BALB/3T3 clone A31; [4]) was 16.2 ± 2.88 µg/mL and the IC50 (NCI-H1581; [5]) was 4.4 ± 0.61 µM. For the same compound, the IC50 (NCI-H1581; [6]) was 2.66 ± 0.37 µg/mL, the “SI (Selectivity Index)” value (NCI-H1581) was 6 and the “solvability in dimethyl sulfoxide (DMSO)” value [1] was 11 **. For the same compound, the “solvability in DMSO” value [1] was “[b]”, the IC50 (MIA PaCa-2; [7]) was 37.6 ± 5.51 µM and the IC50 (MIA PaCa-2; [8]) was 22.7 ± 3.33 µg/mL.
